± gives the standard deviation of the averaged measurements.
Key:
SORAFENIB = compound: CNC(=O)c1cc(Oc2ccc(NC(=O)Nc3ccc(Cl)c(C(F)(F)F)c3)cc2)ccn1 [SORAFENIB]; assay: surviving fraction relative to DMSO-only wells; higher = less growth inhibition; conditions: exposure time: 5 days
Procedure, shortened: (§1)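 Viability was scored with CellTiter-Glo luminescence and normalised to the median of DMSO-only wells as surviving fraction. Beforehand, log-phase tumour cell lines were seeded at 250–500 cells per well in 384-well plates, allowed 24 hours, and exposed continuously for five days to inhibitors at 0.5, 1, 5, 10, 50, 100, 500 and 1000 nM. Only lines whose three screens gave replicate Pearson r >0.7 and median Z' >0.3 were kept.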

TEMOZOLOMIDE = compound: Cn1nnc2c(C(N)=O)ncn2c1=O [TEMOZOLOMIDE]; assay: as above; conditions: exposure time: 5 days
Procedure, shortened: as §1

| Test System | surviving fraction (SORAFENIB; 0.5 nM) | surviving fraction (SORAFENIB; 5 nM) | surviving fraction (SORAFENIB; 10 nM) | surviving fraction (SORAFENIB; 50 nM) | surviving fraction (SORAFENIB; 100 nM) | surviving fraction (SORAFENIB; 500 nM) | surviving fraction (SORAFENIB; 1000 nM) | surviving fraction (TEMOZOLOMIDE; 0.5 nM) | surviving fraction (TEMOZOLOMIDE; 1 nM) | surviving fraction (TEMOZOLOMIDE; 5 nM) | surviving fraction (TEMOZOLOMIDE; 10 nM) | surviving fraction (TEMOZOLOMIDE; 50 nM) | surviving fraction (TEMOZOLOMIDE; 100 nM) | surviving fraction (TEMOZOLOMIDE; 500 nM) | surviving fraction (TEMOZOLOMIDE; 1000 nM) | surviving fraction (SORAFENIB; 1 nM) |
| --- | --- | --- | --- | --- | --- | --- | --- | --- | --- | --- | --- | --- | --- | --- | --- | --- |
| HCC1954 BREAST | 1.11 ± 0.15 | 1.02 ± 0.077 | 0.93 ± 0.27 | 1.22 ± 0.11 | 1.29 ± 0.039 | 1.3 ± 0.1 | 1.33 ± 0.14 | 1.11 ± 0.19 | 0.956 ± 0.25 | 1.198 ± 0.0064 | 1.2 ± 0.082 | 1.16 ± 0.12 | 0.989 ± 0.13 | 1.04 ± 0.24 | 0.976 ± 0.023 |  |
| HCT15 LARGE INTESTINE | 0.955 ± 0.029 | 0.99 ± 0.026 | 0.982 ± 0.021 | 1.09 ± 0.052 | 1.09 ± 0.064 |  | 1.06 ± 0.035 | 1.014 ± 0.0029 | 1.029 ± 0.0053 | 0.999 ± 0.055 | 1.02 ± 0.053 | 1.02 ± 0.045 | 1.08 ± 0.05 | 1.04 ± 0.063 | 1.09 ± 0.062 | 0.989 ± 0.0099 |
| HELA CERVIX | 1.03 ± 0.022 | 0.986 ± 0.047 | 0.9492 ± 0.0068 | 1.1 ± 0.024 | 1.09 ± 0.062 | 1.07 ± 0.055 |  | 1.04 ± 0.058 | 1.08 ± 0.09 | 1.04 ± 0.019 | 1.12 ± 0.078 | 1.07 ± 0.02 | 1.16 ± 0.084 | 1.07 ± 0.031 | 1.16 ± 0.072 | 0.982 ± 0.024 |
| HOS BONE | 1.03 ± 0.043 | 1.025 ± 0.0095 | 1.03 ± 0.018 | 1.09 ± 0.014 |  |  |  | 0.994 ± 0.018 | 1.038 ± 0.0071 | 1.028 ± 0.0056 | 1.05 ± 0.042 | 1.04 ± 0.012 | 1.04 ± 0.012 | 1.04 ± 0.016 | 1.058 ± 0.0076 | 1.015 ± 0.0025 |
| HOSMNG BONE | 0.994 ± 0.086 | 0.943 ± 0.092 | 1 ± 0.14 | 1.06 ± 0.11 | 1.05 ± 0.16 | 1.1 ± 0.049 | 1.06 ± 0.15 | 0.835 ± 0.15 | 0.927 ± 0.11 | 0.795 ± 0.051 | 0.89 ± 0.03 | 0.938 ± 0.12 | 0.936 ± 0.16 | 0.995 ± 0.12 | 0.957 ± 0.074 | 0.975 ± 0.14 |
| HSSYII SYNOVIAL | 1 ± 0.059 | 0.977 ± 0.038 | 0.942 ± 0.035 | 0.947 ± 0.037 | 1.01 ± 0.024 | 0.855 ± 0.035 | 0.779 ± 0.038 | 0.958 ± 0.033 | 0.957 ± 0.061 | 0.965 ± 0.039 | 0.998 ± 0.051 | 1.02 ± 0.024 | 0.9798 ± 0.0033 | 0.981 ± 0.035 | 0.956 ± 0.04 | 0.975 ± 0.026 |
| HT1080 SOFT TISSUE | 1.04 ± 0.057 | 1.04 ± 0.035 | 1.02 ± 0.014 | 1.023 ± 0.005 | 1.01 ± 0.028 | 1.05 ± 0.09 | 1.01 ± 0.031 | 1.04 ± 0.039 | 1.03 ± 0.014 | 1.03 ± 0.026 | 1.03 ± 0.022 | 1.03 ± 0.026 | 1.04 ± 0.014 | 1.04 ± 0.017 | 1.03 ± 0.023 | 1.05 ± 0.036 |
| HU09 BONE | 0.95 ± 0.061 | 1.01 ± 0.099 | 0.95 ± 0.072 | 0.809 ± 0.061 | 0.675 ± 0.063 | 0.512 ± 0.016 | 0.433 ± 0.02 | 0.817 ± 0.057 | 1.01 ± 0.042 | 1.08 ± 0.11 | 1.1 ± 0.014 | 0.964 ± 0.14 | 1.12 ± 0.051 | 0.966 ± 0.11 | 0.961 ± 0.076 | 0.951 ± 0.089 |
| HUO3N1 BONE | 1 ± 0.053 |  | 1 ± 0.036 | 1.004 ± 0.01 | 0.941 ± 0.04 | 0.818 ± 0.029 | 0.82 ± 0.017 | 0.981 ± 0.025 | 0.988 ± 0.045 | 1.029 ± 0.0051 | 1.04 ± 0.042 | 1.01 ± 0.039 | 1.06 ± 0.032 | 0.9827 ± 0.0083 | 1.02 ± 0.03 |  |
| JIMT1 BREAST |  | 1.02 ± 0.022 | 0.97 ± 0.014 |  | 1.05 ± 0.046 |  | 0.986 ± 0.071 | 1 ± 0.022 | 1.03 ± 0.032 | 1.021 ± 0.0081 | 1.07 ± 0.07 | 1 ± 0.022 | 1.04 ± 0.038 | 1.01 ± 0.025 | 1.06 ± 0.065 | 0.986 ± 0.028 |
| JURKAT HAEMATOPOIETIC AND LYMPHOID TISSUE | 1.106 ± 0.0035 | 1.11 ± 0.039 | 1.11 ± 0.037 | 1.08 ± 0.023 | 1.06 ± 0.029 |  | 0.863 ± 0.012 | 1.06 ± 0.019 | 1.08 ± 0.024 | 1.05 ± 0.032 | 1.05 ± 0.02 | 1.04 ± 0.029 | 1.01 ± 0.029 | 1.02 ± 0.02 | 1.04 ± 0.013 | 1.1 ± 0.026 |
| KPD BONE | 0.922 ± 0.019 | 1.03 ± 0.032 |  | 0.989 ± 0.075 |  |  |  | 0.925 ± 0.022 | 0.955 ± 0.091 | 1.11 ± 0.079 | 1.01 ± 0.024 | 1.06 ± 0.088 | 1.074 ± 0.0076 | 0.983 ± 0.1 | 0.977 ± 0.043 |  |
| LM7 BONE | 0.938 ± 0.057 |  | 1.01 ± 0.066 | 1.11 ± 0.14 | 1.04 ± 0.054 |  | 1.05 ± 0.033 | 0.916 ± 0.081 | 0.989 ± 0.086 | 1.04 ± 0.085 | 1.05 ± 0.049 | 1.05 ± 0.077 | 1.09 ± 0.022 | 0.968 ± 0.065 | 0.967 ± 0.04 | 0.97 ± 0.048 |
| LNCAP PROSTATE | 1.01 ± 0.084 | 1 ± 0.082 | 1.06 ± 0.08 | 0.902 ± 0.23 |  | 0.887 ± 0.12 | 0.853 ± 0.17 | 0.966 ± 0.088 | 0.915 ± 0.073 | 0.985 ± 0.17 | 0.8907 ± 0.0074 | 0.93 ± 0.034 | 0.963 ± 0.092 | 0.897 ± 0.037 | 0.924 ± 0.083 |  |
| MCF7 BREAST | 0.866 ± 0.025 | 0.904 ± 0.021 | 0.851 ± 0.022 | 0.928 ± 0.047 | 0.939 ± 0.034 | 0.995 ± 0.074 | 0.873 ± 0.025 | 0.889 ± 0.03 | 0.932 ± 0.023 | 0.934 ± 0.027 | 0.907 ± 0.054 | 0.922 ± 0.031 | 0.941 ± 0.037 | 0.958 ± 0.058 | 0.987 ± 0.034 | 0.86 ± 0.068 |
| MDAMB134 BREAST | 1.04 ± 0.067 | 1.06 ± 0.033 | 1.02 ± 0.031 | 1.06 ± 0.053 | 1.14 ± 0.091 | 1.21 ± 0.18 |  | 0.928 ± 0.0085 | 0.981 ± 0.033 | 0.926 ± 0.14 | 0.902 ± 0.15 | 0.975 ± 0.23 | 1.05 ± 0.17 | 0.953 ± 0.2 | 1.11 ± 0.08 | 1.26 ± 0.12 |
| MDAMB157 BREAST | 0.962 ± 0.016 | 0.984 ± 0.03 | 0.923 ± 0.046 |  | 1.01 ± 0.059 | 0.963 ± 0.036 |  | 1.02 ± 0.067 | 0.986 ± 0.046 | 0.968 ± 0.09 | 1.1 ± 0.074 | 0.953 ± 0.06 | 1.11 ± 0.028 | 0.927 ± 0.055 | 0.954 ± 0.1 | 0.909 ± 0.064 |
| MDAMB231 BREAST | 0.99 ± 0.025 | 0.924 ± 0.036 | 0.905 ± 0.014 | 0.887 ± 0.014 | 0.936 ± 0.05 |  | 0.929 ± 0.016 | 0.9454 ± 0.0069 | 0.992 ± 0.024 | 0.9815 ± 0.008 | 1.01 ± 0.016 | 0.986 ± 0.013 | 0.998 ± 0.023 | 0.975 ± 0.015 | 0.985 ± 0.025 | 0.995 ± 0.014 |
| MDAMB361 BREAST | 0.813 ± 0.078 | 0.904 ± 0.029 |  | 0.909 ± 0.034 | 0.837 ± 0.03 | 0.796 ± 0.049 | 0.84 ± 0.098 | 0.914 ± 0.14 | 0.93 ± 0.017 | 0.917 ± 0.15 | 0.889 ± 0.1 | 0.983 ± 0.16 | 0.925 ± 0.037 | 0.945 ± 0.1 | 0.908 ± 0.042 | 0.862 ± 0.089 |
| MDAMB436 BREAST | 0.966 ± 0.04 | 0.977 ± 0.057 | 0.949 ± 0.085 |  | 0.961 ± 0.043 |  | 0.855 ± 0.019 | 0.976 ± 0.14 | 1.03 ± 0.15 | 0.997 ± 0.13 | 1.09 ± 0.17 | 0.936 ± 0.1 | 1.04 ± 0.14 | 1.03 ± 0.11 | 0.959 ± 0.051 | 0.992 ± 0.046 |
| MDAMB453 BREAST | 1.08 ± 0.064 | 1.11 ± 0.074 | 1.09 ± 0.011 | 1.12 ± 0.056 | 1.12 ± 0.091 |  | 1.04 ± 0.047 | 1.07 ± 0.015 | 1.097 ± 0.0087 | 1.13 ± 0.016 | 1.1 ± 0.076 | 1.14 ± 0.058 | 1.09 ± 0.11 | 1.07 ± 0.075 | 1.09 ± 0.056 |  |
| MDAMB468 BREAST | 1 ± 0.083 | 1.15 ± 0.062 | 1.09 ± 0.072 | 1.28 ± 0.073 | 1.26 ± 0.12 | 1.23 ± 0.029 | 1.21 ± 0.051 | 0.983 ± 0.086 | 1.13 ± 0.045 | 1.114 ± 0.0027 | 1.17 ± 0.075 | 1.09 ± 0.07 | 1.15 ± 0.045 | 1.03 ± 0.1 | 1.12 ± 0.091 |  |
